Read-outs that look alike come from different tables or passages of the source.
Tested on: LHRH binding sites on human ovarian cancer cells (EFO-27)
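Further: Cell-associated radioactivity on confluent EFO-27 monolayers in 96-well plates, measured by microplate scintillation counting.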

Row | Structure (SMILES) | EC50 | also measured
1 | N=C(N)NCCC[C@H](NC(=O)[C@H](Cc1ccc(OP(=O)(O)O)cc1)NC(=O)CN1CCN(CC(=O)O)CCN(CC(=O)O)CCN(CC(=O)O)CC1)C(=O)N[C@@H](Cc1c[nH]c2ccccc12)C(=O)N[C@@H](CO)C(=O)N[C@@H](Cc1c[nH]cn1)C(=O)N[C@H](CCCNC(=N)N)C(=O)N[C@@H](Cc1c[nH]c2ccccc12)C(=O)N[C@@H](Cc1ccc(C(=O)c2ccccc2)cc1)C(=O)N1CCC[C@H]1C(=O)NNC(N)=O [BRU-3093] | – | EC50 (EFO-27 cells, competition with [125I-Tyr8]BRU-2477, 90 min): 17000 nM
2 | N=C(N)NCCC[C@H](NC(=O)[C@@H](Cc1ccc2ccccc2c1)NC(=O)CN1CCN(CC(=O)O)CCN(CC(=O)O)CCN(CC(=O)O)CC1)C(=O)N[C@@H](Cc1c[nH]c2ccccc12)C(=O)N[C@@H](CO)C(=O)N[C@@H](Cc1c[nH]cn1)C(=O)N[C@H](CCCNC(=N)N)C(=O)N[C@@H](Cc1c[nH]c2ccccc12)C(=O)N[C@@H](Cc1ccc(C(=O)c2ccccc2)cc1)C(=O)N1CCC[C@H]1C(=O)Nc1ccccc1 [compound 3006] | 420 nM | –
3 | CN(CC(=O)N[C@@H](CCCNC(=N)N)C(=O)N[C@@H](Cc1c[nH]c2ccccc12)C(=O)N[C@@H](CO)C(=O)N[C@@H](Cc1c[nH]cn1)C(=O)N[C@H](CCCNC(=N)N)C(=O)N[C@@H](Cc1c[nH]c2ccccc12)C(=O)N[C@@H](Cc1ccc(C(=O)c2ccccc2)cc1)C(=O)N1CCC[C@H]1C(=O)NNC(N)=O)C(=O)CN1CCN(CC(=O)O)CCN(CC(=O)O)CCN(CC(=O)O)CC1 [BRU-2817] | – | EC50 (Table 5: modifications of amino acids at positions 1 and 2, in vitro binding on EFO-27 cells): 1700 nM
4 | N=C(N)NCCC[C@H](NC(=O)[C@@H](Cc1ccc2ccccc2c1)NC(=O)CN1CCN(CC(=O)O)CCN(CC(=O)O)CCN(CC(=O)O)CC1)C(=O)N[C@@H](Cc1c[nH]c2ccccc12)C(=O)N[C@@H](CO)C(=O)N[C@@H](Cc1c[nH]cn1)C(=O)N[C@H](CCCNC(=N)N)C(=O)N[C@@H](Cc1c[nH]c2ccccc12)C(=O)N[C@@H](Cc1ccc(C(=O)c2ccccc2)cc1)C(=O)N1CCC[C@H]1C(=O)NNC(=O)NCCCCN [compound 3019] | 900 nM | –
5 | CNCC(=O)N[C@@H](CCCNC(=N)N)C(=O)N[C@@H](Cc1c[nH]c2ccccc12)C(=O)N[C@@H](CO)C(=O)N[C@@H](Cc1c[nH]cn1)C(=O)N[C@H](CCCNC(=N)N)C(=O)N[C@@H](Cc1c[nH]c2ccccc12)C(=O)N[C@@H](Cc1ccc(C(=O)c2ccccc2)cc1)C(=O)N1CCC[C@H]1C(=O)NCCOCCNC(=O)CN1CCN(CC(=O)O)CCN(CC(=O)O)CCN(CC(=O)O)CC1 [compound 3039] | 280 ± 30 nM | –
6 | CNCC(=O)N[C@@H](CCCNC(=N)N)C(=O)N[C@@H](Cc1c[nH]c2ccccc12)C(=O)N[C@@H](CO)C(=O)N[C@@H](Cc1c[nH]cn1)C(=O)N[C@H](CCCNC(=N)N)C(=O)N[C@@H](Cc1c[nH]c2ccccc12)C(=O)N[C@@H](Cc1ccc(C(=O)c2ccccc2)cc1)C(=O)N1CCC[C@H]1C(=O)NCCCCNC(=O)CN1CCN(CC(=O)O)CCN(CC(=O)O)CCN(CC(=O)O)CC1 [compound 3041] | 360 ± 20 nM | –

Now from value to molecule, other results behind:

Row | EC50 | Structure (SMILES) | also measured
7 | 230 to 500 nM | CNCC(=O)N[C@@H](CCCNC(=N)N)C(=O)N[C@@H](Cc1c[nH]c2ccccc12)C(=O)N[C@@H](CO)C(=O)N[C@@H](Cc1c[nH]cn1)C(=O)N[C@H](CCCNC(=N)N)C(=O)N[C@@H](Cc1c[nH]c2ccccc12)C(=O)N[C@@H](Cc1ccc(C(=O)c2ccccc2)cc1)C(=O)N1CCC[C@H]1C(=O)NCCCCCNC(=O)CN1CCN(CC(=O)O)CCN(CC(=O)O)CCN(CC(=O)O)CC1 [BRU-3085] | –
8 | 230 to 500 nM | CNCC(=O)N[C@@H](CCCNC(=N)N)C(=O)N[C@@H](Cc1c[nH]c2ccccc12)C(=O)N[C@@H](CO)C(=O)N[C@@H](Cc1c[nH]cn1)C(=O)N[C@H](CCCNC(=N)N)C(=O)N[C@@H](Cc1c[nH]c2ccccc12)C(=O)N[C@@H](Cc1ccc(C(=O)c2ccccc2)cc1)C(=O)N1CCC[C@H]1C(=O)NCCOCCOCCNC(=O)CN1CCN(CC(=O)O)CCN(CC(=O)O)CCN(CC(=O)O)CC1 [BRU-3043] | –

— patent publication US20120045393A1 (priority 2009, published 2012)
